What was measured:
human A3 receptors = target: T1, human A3 receptors (Homo sapiens, UniProt P0DMS8); experiment: Adenosine receptor subtypes competition radioligand binding assay, A3 receptor ([3H]-NECA); details: membranes from human A3 receptors transfected to CHO cells, 60 min at 25° C.
T1 construct: purchased Receptor Biology, Inc. (USA); host or cells: CHO cells
T1 sequence (P0DMS8 1-318): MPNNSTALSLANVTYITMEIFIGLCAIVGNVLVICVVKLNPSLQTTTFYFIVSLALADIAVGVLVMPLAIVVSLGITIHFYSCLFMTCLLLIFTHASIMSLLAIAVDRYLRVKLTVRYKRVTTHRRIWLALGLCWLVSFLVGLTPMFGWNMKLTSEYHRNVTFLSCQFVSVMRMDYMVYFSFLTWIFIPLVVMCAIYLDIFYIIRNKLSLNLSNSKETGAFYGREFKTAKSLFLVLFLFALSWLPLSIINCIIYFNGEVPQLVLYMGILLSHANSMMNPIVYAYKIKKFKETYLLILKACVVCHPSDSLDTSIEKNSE
Description: (§1) Adenosine Receptor Subtypes Competition Radioligand Binding Assay
(§2) Human recombinant membranes with adenosine receptors were purchased from Receptor Biology, Inc. (USA).
Competitive assays were carried out by incubation of membranes from human A3 receptors transfected to CHO cells, [^3H]-NECA, buffer (20 mM HEPES (pH 7.4), 100 mM NaCl, 10 mM MgCl2, 2 units/ml adenosine deaminase), and unlabelled ligand in a total volume of 0.2 ml for 60 min at 25° C. R-PIA was used to determine nonspecific binding. It was filtered over Schleicher & Schuell GF/52 (presoaked with 0.5% polyethyleneimine) in a Brandel cell harvester. The unbound radioligand was removed with 3×250 μl of 20 mM HEPES (pH 7.4), 100 mM NaCl, 10 mM MgCl2.
In Table 1, binding constants to adenosine A3 receptor obtained for some examples are shown.

adenosine A1 receptor = target: T2, adenosine A1 receptor (Homo sapiens, UniProt P30542); experiment: Adenosine receptor subtypes competition radioligand binding assay, A1 receptor; details: human recombinant membranes
T2 construct: purchased Receptor Biology, Inc. (USA)
T2 sequence (P30542 1-326): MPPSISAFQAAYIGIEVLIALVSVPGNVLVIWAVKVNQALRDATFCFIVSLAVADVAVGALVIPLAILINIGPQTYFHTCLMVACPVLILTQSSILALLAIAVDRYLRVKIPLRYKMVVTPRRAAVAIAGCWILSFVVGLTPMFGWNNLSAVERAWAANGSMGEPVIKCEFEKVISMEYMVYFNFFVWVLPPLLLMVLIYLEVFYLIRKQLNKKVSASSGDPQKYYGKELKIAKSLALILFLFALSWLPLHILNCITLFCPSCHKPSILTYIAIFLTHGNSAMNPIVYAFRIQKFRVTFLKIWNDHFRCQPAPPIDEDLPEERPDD
Text: as §1, §2

[1] = system: intestinal inflammation and spontaneous colitis; details: mice; cited from earlier work
[2] = system: ischemia induced renal failure; details: rats, ischemia induced with micro aneurysm clips after pretreatment; cited from earlier work
rheumatoid arthritis = details: RA patients, oral administration twice daily for 12 weeks; cited from earlier work
[3] = system: experimental autoimmune uveitis; details: experimental autoimmune uveitis model; cited from earlier work

SMILES	Ki (human A3 receptors) [nM]	Ki (adenosine A1 receptor) [nM]	other results
COc1ccc(-c2nc(NC(=O)c3cccc(C(=O)O)c3)sc2C#N)cc1 [Example 6, 3-(5-cyano-4-(4-methoxyphenyl)thiazol-2-ylcarbamoyl)benzoic Acid]	10	> 1000	
COc1ccc(-c2nc(NC(=O)c3ccc(C(=O)O)s3)sc2C#N)cc1 [Example 8, 5-(5-cyano-4-(4-methoxyphenyl)thiazol-2-ylcarbamoyl)thiophene-2-carboxylic Acid]	23	> 1000	
N#Cc1sc(NC(=O)c2ccc(C(=O)O)s2)nc1-c1ccc(F)cc1 [Example 13, 5-(5-cyano-4-(4-fluorophenyl)thiazol-2-ylcarbamoyl)thiophene-2-carboxylic Acid]	66	131	
N#Cc1sc(NC(=O)c2ccc(C(=O)O)s2)nc1-c1ccccc1F [Example 15, 5-(5-cyano-4-(2-fluorophenyl)thiazol-2-ylcarbamoyl)thiophene-2-carboxylic Acid]	99	> 500	
N#Cc1sc(NC(=O)c2ccc(C(=O)O)s2)nc1-c1ccccc1 [Example 22, 5-(5-cyano-4-phenylthiazol-2-ylcarbamoyl)thiophene-2-carboxylic Acid]	66	87	
N#Cc1sc(NC(=O)c2ccc(C(=O)O)s2)nc1-c1cccs1 [Example 25, 5-((5-cyano-4-(thiophen-2-yl)thiazol-2-yl)carbamoyl)thiophene-2-carboxylic Acid]	36		
N#Cc1sc(NC(=O)c2ccc(C(=O)O)s2)nc1-c1cc(Cl)cs1 [Example 26, 5-((4-(4-chlorothiophen-2-yl)-5-cyanothiazol-2-yl)carbamoyl)thiophene-2-carboxylic Acid]	12		
COc1ccc(-c2nc(NC(=O)c3cccc(C(=O)O)c3)sc2C#N)cn1 [Example 37, 3-(5-cyano-4-(6-methoxypyridin-3-yl)thiazol-2-ylcarbamoyl)benzoic Acid]	99	> 1000	
O=C(O)c1ccc(C(=O)Nc2nc(-c3ccccc3)c(Cl)s2)s1 [Example 38, 5-(5-chloro-4-phenylthiazole-2-ylcarbamoyl)thiophene-2-carboxylic Acid]	21	34	
O=C(O)c1ccc(C(=O)Nc2nc(-c3ccccc3)c(F)s2)s1 [Example 41, 5-(5-fluoro-4-phenylthiazol-2-ylcarbamoyl)thiophene-2-carboxylic Acid]	10	64	
COc1ccc(-c2nc(NC(=O)c3ccc(C(=O)O)s3)sc2Cl)cc1 [Example 44, 5-(5-chloro-4-(4-methoxyphenyl)thiazol-2-ylcarbamoyl)thiophene-2-carboxylic Acid]	24	> 1000	
CNC(=O)[C@H]1O[C@@H](n2cnc3c(NCc4cccc(I)c4)ncnc32)[C@H](O)[C@@H]1O [IB-MECA, N6-(3-iodobenzyl)-adenosine-5′-N-methyluronamide]			Effect on intestinal inflammation and spontaneous colitis [1]: ameliorate intestinal inflammation and spontaneous colitis; Effect of pretreatment on ischemia induced renal failure [2]: harmful; Effect on disease signs and symptoms (rheumatoid arthritis): improvement of disease signs and symptoms; Safety and tolerability (rheumatoid arthritis): safe, well tolerated; Effect on clinical and pathological manifestations of uveitis [3]: inhibited the clinical and pathological manifestations of uveitis
